Measured values from article PMC5589878, “Development of Fluorescent Probes that Target Serotonin 5-HT2B Receptors” (Scientific Reports, 2017).

Columns and labels:
5-HT2A receptors [1] = target: T1, 5-HT2A receptors (Homo sapiens, UniProt P28223); experiment: Labelling of 5-HT2A receptors in live CHO-FA4-5-HT2A cells (fluorescence microscopy, plate reader); type: cell-based; set-up: expressed in transfected cells; host or cells: CHO-FA4-5-HT2A cells (live)
Description: The specificity and sensitivity of the 12i probe towards 5-HT2B receptors over other 5-HT2 receptor subtypes was evaluated by performing similar labelling experiments in CHO cells stably expressing 5-HT2A receptors (CHO-FA4-5-HT2A). […] However, even in these conditions (20 μM concentration of 12i) the signal window over background achieved for 5-HT2A labelling was considerably smaller than that detected in the case of 5-HT2B labelling at a concentration of 12i more than 6 times lower (3 μM) (Fig. 9 and Supplementary Figure S3).
(§1) For cell labelling studies, cells were plated onto 96-well plates (Cell Carrier; Perkin-Elmer, Waltham, MA, USA) pre-treated with poly-D-lysine hydrobromide 0.1 mg/mL (Sigma Aldrich, Spain) at a density of 10000 cells/well and cultured for 24 h. […] Fluorescence images were acquired using an Operetta high content imaging instrument (Perkin-Elmer, Waltham, MA, USA) at 20x and 40x magnification, at excitation wavelengths of 520–550 nm and emission wavelengths of 560–630 nm (standard 5-TAMRA filter set) for compound 12i, and excitation wavelengths of 360–400 nm and emission wavelengths of 410–480 nm for Hoechst 33342 (standard Hoechst 33342 filter set).
The fluorescence intensity of the cells labelled with compound 12i was quantified by image analysis of the acquired images using Harmony v3.5 software (Perkin-Elmer). […]

human 5-HT2C receptors = target: T2, human 5-HT2C receptors (Homo sapiens, UniProt P28335); experiment: Radioligand competition binding assay at human 5-HT2C receptors
T2 construct: expressed in transfected cells; host or cells: HeLa-5-HT2C cells (membranes)
T2 sequence (P28335 33-458): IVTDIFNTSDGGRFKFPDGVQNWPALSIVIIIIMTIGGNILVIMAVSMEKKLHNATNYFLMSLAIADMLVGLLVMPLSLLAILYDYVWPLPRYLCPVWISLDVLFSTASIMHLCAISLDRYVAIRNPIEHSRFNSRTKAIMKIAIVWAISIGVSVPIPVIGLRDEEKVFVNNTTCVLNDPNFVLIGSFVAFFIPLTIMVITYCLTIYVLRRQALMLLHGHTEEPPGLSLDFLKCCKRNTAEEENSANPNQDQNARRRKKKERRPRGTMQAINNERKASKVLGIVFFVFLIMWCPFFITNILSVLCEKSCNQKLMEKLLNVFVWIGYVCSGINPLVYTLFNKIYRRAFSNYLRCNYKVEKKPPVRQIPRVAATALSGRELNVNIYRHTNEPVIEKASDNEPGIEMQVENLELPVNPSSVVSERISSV

5-HT2A receptors [2] = target: T1, 5-HT2A receptors; experiment: Radioligand competition binding assay at human 5-HT2A receptors; set-up: expressed in transfected cells; host or cells: CHO-FA4-5-HT2A cells (membranes)
5-HT2B receptors [3] = target: T3, 5-HT2B receptors (Homo sapiens, UniProt P41595); experiment: Functional assay of IPs accumulation at human 5-HT2B receptors; type: cell-based
Description: After 24 h, growth medium was replaced by serum-free medium containing 10 μCi/mL [^3H]myo-inositol (20.3 Ci/mmol, Perkin-Elmer) for 24 h. […] After the incubation time, assay buffer was discarded and 200 μL of 100 mM formic acid was added to the cells for 30 min at 4 °C and 20 μL of the lysate were transferred to a flexiplate plate (Perkin-Elmer, Waltham, MA, USA) together with 80 μL of a solution of RNA Binding YSi SPA Beads (Perkin-Elmer, Waltham, MA, USA) to measure accumulation of [^3H]IPs (IP1,IP2, and IP3, collectively referred to as IPs).

5-HT2B receptors [4] = target: T3, 5-HT2B receptors; experiment: Radioligand competition binding assay at human 5-HT2B receptors
5-HT2B receptors [5] = target: T3, 5-HT2B receptors; type: cell-based; conditions: 3 μM, 10 min at 37 °C; image analysis and plate reader; p < 0.001
Description: Having finished the preliminary photophysical and pharmacological characterization of the fluorescent derivatives 12a–i, their potential to specifically label 5-HT2B receptors in live cells was evaluated. Chinese hamster ovary K1 (CHO-K1) cells and CHO-K1 cells stably expressing the human serotonin 5-HT2B receptor (CHO-K1-5-HT2B), growing in 96-well plates, were incubated with at least three different concentrations of each compound for varying times and, after compound removal and washing of the cells, plates were subjected to fluorescence microscopy using a high content imaging instrument and the appropriate excitation and emission filter set for each compound.
as §1, with “set). […]” for “set).”

[6] = Absorption and emission spectra (photophysical properties); type: physicochemical; conditions: 10 μM solutions
Description: The absorption and emission spectra of the fluorescent 5-HT2 ligands (10 and 12) were determined on 10 μM solutions. The most relevant fluorescent properties are collected in Fig. 5. All of the synthesized derivatives emitted fluorescence in the visible region of the spectrum, with selected fluorescent tags (Fig. 4) providing distinctive properties and excitation wavelengths. The excitation wavelengths varied from 305 to 555 nm, whereas those for emission varied from 398 to 580 nm.

[7] = system: tumor necrosis factor alpha (TNF-α); conditions: primary aortic smooth muscle cells and animal models; cited from earlier work

T1 sequence (P28223 whole entry): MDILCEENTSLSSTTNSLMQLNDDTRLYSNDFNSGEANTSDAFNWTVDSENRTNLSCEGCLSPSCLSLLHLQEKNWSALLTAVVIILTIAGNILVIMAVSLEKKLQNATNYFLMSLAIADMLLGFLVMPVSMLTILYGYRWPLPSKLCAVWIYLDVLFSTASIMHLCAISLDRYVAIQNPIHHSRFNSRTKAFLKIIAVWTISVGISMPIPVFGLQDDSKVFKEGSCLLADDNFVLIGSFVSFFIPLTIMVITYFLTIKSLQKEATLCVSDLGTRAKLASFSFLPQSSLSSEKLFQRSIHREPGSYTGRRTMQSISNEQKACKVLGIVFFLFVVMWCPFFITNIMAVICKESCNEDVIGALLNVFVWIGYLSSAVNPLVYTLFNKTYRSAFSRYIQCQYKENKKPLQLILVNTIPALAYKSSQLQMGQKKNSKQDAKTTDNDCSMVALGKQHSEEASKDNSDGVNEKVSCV
T3 sequence (P41595 whole entry): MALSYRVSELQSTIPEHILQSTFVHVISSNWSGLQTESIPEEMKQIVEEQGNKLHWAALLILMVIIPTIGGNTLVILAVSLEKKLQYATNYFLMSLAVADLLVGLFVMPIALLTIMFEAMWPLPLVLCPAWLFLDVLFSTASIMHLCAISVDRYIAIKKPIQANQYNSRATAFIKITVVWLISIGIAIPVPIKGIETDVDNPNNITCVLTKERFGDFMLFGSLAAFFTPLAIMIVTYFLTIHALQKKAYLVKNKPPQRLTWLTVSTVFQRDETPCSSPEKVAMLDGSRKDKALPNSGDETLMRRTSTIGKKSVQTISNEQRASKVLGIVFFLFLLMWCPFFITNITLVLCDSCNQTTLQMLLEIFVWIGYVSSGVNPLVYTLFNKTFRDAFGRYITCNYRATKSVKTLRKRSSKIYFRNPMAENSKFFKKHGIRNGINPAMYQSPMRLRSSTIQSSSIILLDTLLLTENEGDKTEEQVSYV

Row | SMILES | specific labelling of 5-HT2A receptors in CHO-FA4-5-HT2A cells (5-HT2A receptors [1]; 3 μM) | specific labelling of 5-HT2A receptors in CHO-FA4-5-HT2A cells (5-HT2A receptors [1]; 20 μM) | Ki (human 5-HT2C receptors) [nM] | Ki (5-HT2A receptors [2]) [nM] | EC50 (5-HT2B receptors [3]) [nM] | Ki (5-HT2B receptors [4]) [nM] | melting point [°C] | fluorescence intensity of CHO-K1-5-HT2B cell wells versus control CHO-K1 cell wells (5-HT2B receptors [5]) | Δλ (Stokes shift) [6] [nm] | εmax [6] [M⁻¹ cm⁻¹] | λmax Abs [6] [nm] | λmax Em [6] [nm] | potency of blockade of the pro-inflammatory effects of TNF-α [7]
1 | CCN(CC)c1ccc2c(-c3ccccc3C(=O)NCCC(=O)NCCC(=O)NCCCOCCOCCOCCCNC(=O)CCCOc3cc(I)c(OC)cc3CC(C)N)c3ccc(=[N+](CC)CC)cc-3oc2c1 (stereo not shown) [12i, N-(9-(2-((26-(2-(2-aminopropyl)-5-iodo-4-methoxyphenoxy)-3,7,23-trioxo-12,15,18-trioxa-4,8,22-triazahexacosyl)carbamoyl)phenyl)-6-(diethylamino)-3H-xanthen-3-ylidene)-N-ethylethanaminium] | no statistically significant specific labelling | certain specific labelling | 994 | 1220 | 225 | 262 | 151 to 153 | clearly superior | 25 | 78828 | 555 | 580 | –
2 | COc1cc(CC(C)N)c(OC)cc1I (stereo not shown) [DOI, 1-(2,5-Dimethoxy-4-iodophenyl)-propan-2-amine, reference compound] | – | – | 18.2 | – | 11.7 | 48.2 | – | – | – | – | – | – | ≈ 15 pM
